Laboratory results: patent publication EP2896688A1 (Centre National de la Recherche Scientifique (CNRS), priority 2014, dated 2015)
Values belong to the compound of their own block, whether it stands above or below them.

Legend:
[1] = test system: E13.5 rat embryonic pancreases; assay: Number of NGN3-positive cells by immunohistochemistry in cultured embryonic pancreases; assay type: cell-based; conditions: for number of NGN3-positive endocrine progenitor cells, decrease: 1 day, NAC at 10 µM or CCCP at 1 µM
Protocol: (§1) The embryos were harvested on E13.5. The dorsal pancreatic bud was dissected, as described previously (Attali et al., 2007). For the depletion of the mesenchyme, the digestive tract was incubated with 0.5 mg/ml collagenase A (Roche, Meyaln, France) at 37°c for 30 min, then washed several times with Hank's balanced solution (Invitrogen, Cergy-Pontoise, France) at 4°c, and the epithelium was mechanically separated from the mesenchyme using needles on 0.25% agar, 25% Hank's balanced solution and 75% RPMI gel (Life Technologies, Invitrogen) in a petri dish. Pancreatic rudiments (epithelium with mesenchyme) or epithelia were then cultured at the air-medium interface on Millicell culture plate inserts (Millipore, Molsheim, France) in Petri dishes containing RPMI 1640 (Invitrogen) supplemented with penicillin (100 U/ml), streptomycin ([…]), HEPES (10 mM), l-glutamine (2 mM), nonessential amino acids (1; Invitrogen, Cergy-Pontoise, France) and 10% heat-inactivated calf serum (Hyclone, South Logan, UT, USA) for one to 7 days. […] Glucose (Sigma, Saint-Quentin Fallavier, France) was used at 20 mM/l and the inhibitor of the ERK pathway (U0126, Cell Sinaling Technologies Ozyme, Saint-Quentin, France) at 10 µmol/l. Cultures were maintained at 37°C in humidified 95% air and 5% CO2.
Ad-CMV-GFP (ref 1060, Vector Biolabs, Philadelphia, PA, USA) and Ad-Catalase (ref 1475, Vector Biolabs) adenoviruses were used to infect the embryonic Wistar rat epithelia. Tissues were incubated with viral particles at the multiplicity of infection of 1000 for 4 h at 37°C in RPMI 1640 as described in (Heinis et al.2012). After infection, tissues were washed twice in HBSS and cultured at the air-medium interface.
Tissues were fixed in 10% formalin and processed for immunohistochemistry, as described previously (Attali et al., 2007). The following antibodies were used: mouse anti-insulin (1:2000; Sigma-Aldrich), rabbit anti-PDX1 (1:1,000), rabbit anti-amylase (Sigma-Aldrich, 1:300), mouse anti-E-cadherin (1:100, BD Biosciences, Le Pont de Claix, France), mouse anti-BrdU (1:2, Amersham, Velizy-Villacoublay, France), rabbit anti-NGN3 (1:1000) (Guillemain et al., 2007), rabbit anti-catalase (1:1000, Rockland Immunochemicals, Gilbertsville, PA USA). The fluorescent secondary antibodies were fluorescein-isothiocyanate anti-rabbit and Texas-red anti-mouse antibodies (1:200, Jackson Immunoresearch, Suffolk, England), and Atexa-fluor anti-rabbit antibody (1:400, Biogenex, Fremont, CA, USA). For NGN3, revelation was performed using the vectastain ABC kit (Vector LAB, Peterborough, England). Photographs were taken using a fluorescence microscope (Leitz DMRB; Leica) and digitized using a Hamamatsu (Middlesex, NJ, USA) C5810 cooled 3CCD camera.
(§2) To quantify the number of NGN3-positive cells, NGN3-positive cells were counted on all sections. Statistical significance was determined using Student's t test.

[2] = test system: E13.5 rat embryonic pancreases; assay: Beta cell development (insulin staining surface) in cultured embryonic pancreases; assay type: cell-based; conditions: for insulin staining surface: day 7, NAC at 10 µM or CCCP at 1 µM
Description: The embryos were harvested on E13.5. […] On every image, the surface area of insulin staining was quantified using ImageJ as described in (Heinis et al.).

[3] = test system: Notch receptors 1 and 2, the Notch target Hes 1, the Notch ligands Jagged 1, Jagged 2, Delta-like 1; conditions: one day, 50 µM H2O2
Protocol: as §1
Total RNA was purified using the Rneasy microkit (Qiagen, Courtaboeuf, France). […]

[4] = test system: E13.5 rat embryonic pancreases; conditions: one day of culture, 50 µM H2O2
Protocol: as §1, with “CO2. […]” for “CO2.”
(§3) Statistical significance was determined using Student's t test.

ERK1/2 = assay: Western blot of ERK1/2 and MEK phosphorylation in cultured embryonic pancreases; assay type: cell-based, rat
Protocol: The embryos were harvested on E13.5. The dorsal pancreatic bud was dissected, as described previously (Attali et al., 2007). […] Glucose (Sigma, Saint-Quentin Fallavier, France) was used at 20 mM/l and the inhibitor of the ERK pathway (U0126, Cell Sinaling Technologies Ozyme, Saint-Quentin, France) at 10 µmol/l.
For Western blotting analysis, cells were lysed in Laemmli buffer. Proteins (20µg) were resolved by SDS/PAGE and electrophoretically transferred onto PVDF membrane (Bio-Rad, Hercules, CA, USA). After blocking with milk, membranes were probed with rat anti-p44/42 MAPK (Erk1/2), mouse anti-Phospho-p44/42 MAPK (Erk1/2) (Thr202/Tyr204), anti-Phospho-MEK (all from Cell Signaling Ozyme, ST Quentin en Yvelines, France) and mouse anti-actin (Sigma-Aldrich).Immunoreactive bands were visualized with the SuperSignal System (Pierce; Fisher Scientific, Illkirch, France).
The Mitogen Activated Protein Kinase (MAPK) ERK1/2 pathway, which was recently shown to be sensitive to ROS production in several cell types (Zhang et al., 2013) was examined. […] As a positive control, pancreases were also treated with 20 mM Glucose, an inducer of the ERK1/2 phosphorylation (Briaud et al., 2003). […] To further characterize ERK1/2-dependent effect of ROS on pancreas development, an ERK1/2 inhibitor was used (U0126). To validate the efficiency of the inhibitor, pancreatic explants were first cultured with glucose, in the presence or in the absence of U0126. Activation of ERK1/2 by glucose was abolished in the presence of U0126 (Figure 8A), confirming the efficiency of U0126.

beta cells = conditions: concentrations of H2O2 used
early PDX1+ progenitors = conditions: 1 day of culture, 50 µM H2O2
Protocol: The embryos were harvested on E13.5. The dorsal pancreatic bud was dissected, as described previously (Attali et al., 2007). For the depletion of the mesenchyme, the digestive tract was incubated with 0.5 mg/ml collagenase A (Roche, Meyaln, France) at 37°c for 30 min, then washed several times with Hank's balanced solution (Invitrogen, Cergy-Pontoise, France) at 4°c, and the epithelium was mechanically separated from the mesenchyme using needles on 0.25% agar, 25% Hank's balanced solution and 75% RPMI gel (Life Technologies, Invitrogen) in a petri dish. Pancreatic rudiments (epithelium with mesenchyme) or epithelia were then cultured at the air-medium interface on Millicell culture plate inserts (Millipore, Molsheim, France) in Petri dishes containing RPMI 1640 (Invitrogen) supplemented with penicillin (100 U/ml), streptomycin ([…]), HEPES (10 mM), l-glutamine (2 mM), nonessential amino acids (1; Invitrogen, Cergy-Pontoise, France) and 10% heat-inactivated calf serum (Hyclone, South Logan, UT, USA) for one to 7 days. […]
Tissues were fixed in 10% formalin and processed for immunohistochemistry, as described previously (Attali et al., 2007). […] Photographs were taken using a fluorescence microscope (Leitz DMRB; Leica) and digitized using a Hamamatsu (Middlesex, NJ, USA) C5810 cooled 3CCD camera.
as §3

Nrf2 = conditions: pancreases treated with H2O2; data not shown
Protocol: Total RNA was purified using the Rneasy microkit (Qiagen, Courtaboeuf, France). The cDNA was generated using Superscript reagents (Invitrogen), and the real-time PCR was performed on a 7300 real-time PCR system (Applied Biosystem, Invitrogen) with an SYBR Green PCR master mix. The oligonucleotide sequences for RT-PCR are available on request.

embryonic pancreases = assay: NAC given to pregnant rats in drinking water, analysis of embryonic pancreases; assay type: in vivo, Wistar Rats; conditions: pregnant rats treated with 10 mM NAC from E13.5
Description: Pregnant Wistar Rats were purchased from the Janvier Breeding center (CERJ Janvier, Le Genest Saint-Ile, France). The animals had free access to food pellets and water. Embryonic day 0.5 (E0.5) was considered the first day postcoïtum. Pregnant female were killed by CO2 asphyxiation according to the guidelines of the French Animal Care Committee.
N-Acetyl cystein (Sigma, Saint-Quentin Fallavier, France) treatment was initiated during embryonic life at E13.5 and given into drinking water to pregnant females.
For NGN3, revelation was performed using the vectastain ABC kit (Vector LAB, Peterborough, England).
To quantify the absolute number of insulin-expressing cells, all sections of each pancreatic rudiment were digitized. On every image, the surface area of insulin staining was quantified using ImageJ as described in (Heinis et al.).
as §2
Female pregnant rats at 13.5 days postcoitus were treated with NAC, and the number of NGN3-positive cells was measured.

SMILES: N#CC(C#N)=NNc1cccc(Cl)c1 [CCCP, Carbonyl cyanide m-chlorophenyl hydrazone]
number of NGN3-positive endocrine progenitor cells, decrease [1]: ~2 fold
insulin staining surface [2]: decrease

expression of Notch pathway genes vs controls [3]: No difference
SMILES: OO [H2O2, hydrogen peroxide]
rate of apoptosis vs controls [4]: No difference
activation of the ERK1/2 pathway (ERK1/2; 5 or 15 minutes, H2O2 50 µM or 20 mM Glucose): induced
time after addition at which ERK1/2 activation was observed (ERK1/2; H2O2 50 µM): five
oxidative stress or damage in the resulting beta cells (beta cells): did not produce detectable oxidative stress or damage
rate of cell proliferation (BrdU incorporation) vs controls (early PDX1+ progenitors): similar
Nrf2 RNA levels (Nrf2): slight increase
number of NGN3 expressing cells ([1]; H2O2 at 50 µM, without U0126): increased
number of NGN3-positive cells, increase ([1]; day 1, 50 µM H2O2): ~2 fold
insulin surface, larger than controls ([2]; H2O2 50µM, analyzed seven days later): 2.6 fold

SMILES: CC(=O)N[C@@H](CS)C(=O)O [NAC, N-Acetyl cystein]
reduction of the beta cell mass (embryonic pancreases; at E20.5): 2.5 fold
number of NGN3-positive cells, decrease compared to controls (embryonic pancreases; embryonic pancreases analyzed at E20.5): 1.6 fold
number of NGN3-positive endocrine progenitor cells, decrease [1]: ~2 fold
insulin staining surface [2]: decrease

SMILES: N#CC(=C(/N)Sc1ccccc1N)/C(C#N)=C(\N)Sc1ccccc1N [U0126, reference compound]
activation of ERK1/2 by glucose in the presence of the inhibitor (ERK1/2; 20 mM Glucose, U0126 10 µmol/l): abolished
activation of the ERK1/2 pathway by H2O2 in the presence of the inhibitor (ERK1/2; H2O2 50 µM, U0126 10 µmol/l): blunted
H2O2-induced increase of NGN3 expressing cells in the presence of the inhibitor ([1]; H2O2 at 50 µM with U0126): abrogated
